From patent US9187490B2, “Dimeric IAP inhibitors” (TetraLogic Pharmaceuticals Corporation, priority 2005, dated 2015) come the findings set out here.

As usually defined, the Kd is the equilibrium constant for the complex coming apart.

Where only a bound is given, the exact number is not on record here.

The target in the first experiment is T1, XIAP-BIR3 (Homo sapiens, UniProt P98170).
T1 construct: 40 nM of XIAP-BIR3 for 15 min at RT
T1 sequence (P98170 241-356 limits assumed): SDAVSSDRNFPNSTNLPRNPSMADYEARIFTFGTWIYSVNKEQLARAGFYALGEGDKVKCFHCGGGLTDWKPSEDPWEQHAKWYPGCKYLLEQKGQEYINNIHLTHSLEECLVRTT
As to the kind of experiment: XIAP BIR-3 fluorescence polarization binding assay. Conditions: 5 nM AbuRPF-K(5-Fam)-NH2, 40 nM XIAP-BIR3, 15 min RT, pH 7.5; read-out: KD Range. How it is done: Following incubation, the polarization values (mP) were measured on a Victor^2V using a 485 nm excitation filter and a 520 nm emission filter. IC50 values were determined from the plot using nonlinear least-squares analysis using GraphPad Prism.
(In fluorescence polarisation assays a small probe gives low polarisation when free and higher when bound to something large.)
Regarding `CNC(C)C(=O)NC(C(=O)N1CCCC1Cc1c(-c2ccc(-c3c(CC4CCCN4C(=O)C(NC(=O)C(C)NC)C(C)(C)C)c4ccc(F)cc4n3CCO)cc2)n(CCO)c2cc(F)ccc12)C(C)(C)C` (single isomer, unassigned) [Entry 60], the Kd was in the range of 1000 to 10000 nM.
On the same count and under the same terms, for `CC(N)C(=O)NC(C(=O)N1CCCC1Cc1c(-c2ccc(-c3oc4ccccc4c3CC3CCCN3C(=O)C(NC(=O)C(C)N)C(C)C)cc2)oc2ccccc12)C(C)C` (single isomer, unassigned) [Entry 61] the value was over 10000 nM; for `CNC(C)C(=O)NC(C(=O)N1CCCC1Cc1c(-c2ccc(-c3c(CC4CCCN4C(=O)C(NC(=O)C(C)NC)C(C)(C)C)c4ccc(F)cc4n3CCO)cc2)n(CCO)c2cc(F)ccc12)C(C)(C)C` (single isomer, unassigned) [Entry 487], under 100 nM; for `CC(C)[C@H](NC(=O)[C@H](C)N)C(=O)N1CCC[C@H]1Cc1c(/C=C/c2oc3ccccc3c2C[C@@H]2CCCN2C(=O)[C@@H](NC(=O)[C@H](C)N)C(C)C)oc2ccccc12` [Entry 2], under 100 nM.
Regarding `CC(C)[C@H](NC(=O)[C@H](C)N)C(=O)N1CCC[C@H]1Cc1c(CCc2oc3ccccc3c2C[C@@H]2CCCN2C(=O)[C@@H](NC(=O)[C@H](C)N)C(C)C)oc2ccccc12` [Entry 3], the Kd is under 100 nM.
On the same count and under the same terms, for `CC(C)[C@H](NC(=O)CN)C(=O)N1CCC[C@H]1Cc1c(-c2ccc(-c3oc4ccccc4c3C[C@@H]3CCCN3C(=O)[C@@H](NC(=O)[C@H](C)N)C(C)C)cc2)oc2ccccc12` [Entry 4] the value was under 100 nM; for `C[C@H](N)C(=O)N[C@H](C(=O)N1CCC[C@H]1Cc1c(-c2ccc(-c3oc4ccccc4c3C[C@@H]3CCCN3C(=O)[C@@H](NC(=O)[C@H](C)N)C(C)(C)C)cc2)oc2ccccc12)C(C)(C)C` [Entry 7], under 100 nM.
The same measure, in the same setting: for `CN[C@@H](C)C(=O)N[C@H](C(=O)N1CCC[C@H]1Cc1c(-c2ccc(-c3oc4ccccc4c3C[C@@H]3CCCN3C(=O)[C@@H](NC(=O)[C@H](C)NC)C(C)(C)C)cc2)oc2ccccc12)C(C)(C)C` [Entry 8] the value was under 100 nM; for `CC[C@H](N)C(=O)N[C@H](C(=O)N1CCC[C@H]1Cc1c(-c2ccc(-c3oc4ccccc4c3C[C@@H]3CCCN3C(=O)[C@@H](NC(=O)[C@@H](N)CC)C(C)(C)C)cc2)oc2ccccc12)C(C)(C)C` [Entry 9], 100 to 1000 nM.
On the same count and under the same terms, for `CN[C@@H](C)C(=O)N[C@H](C(=O)N1CCC[C@H]1Cc1c(-c2ccc(-c3oc4ccccc4c3C[C@@H]3CCCN3C(=O)[C@@H](NC(=O)[C@H](C)NC)C(C)C)cc2)oc2ccccc12)C(C)C` [Entry 10] the value was under 100 nM; for `CC[C@H](N)C(=O)N[C@H](C(=O)N1CCC[C@H]1Cc1c(-c2ccc(-c3oc4ccccc4c3C[C@@H]3CCCN3C(=O)[C@@H](NC(=O)[C@@H](N)CC)C(C)C)cc2)oc2ccccc12)C(C)C` [Entry 11], under 100 nM.
Consider `C[C@H](N)C(=O)N[C@H](C(=O)N1CCC[C@H]1Cc1c(-c2ccc(-c3oc4ccccc4c3C[C@@H]3CCCN3C(=O)[C@@H](NC(=O)[C@H](C)N)C3CCCCC3)cc2)oc2ccccc12)C1CCCCC1` [Entry 12], for which the Kd is under 100 nM.
Consider `CN[C@@H](C)C(=O)N[C@H](C(=O)N1CCC[C@H]1Cc1c(-c2ccc(-c3oc4ccccc4c3C[C@@H]3CCCN3C(=O)[C@@H](NC(=O)[C@H](C)NC)C3CCCCC3)cc2)oc2ccccc12)C1CCCCC1` [Entry 13], for which the dissociation constant Kd is under 100 nM.
On the same count and under the same terms, the result for `CC[C@H](N)C(=O)N[C@H](C(=O)N1CCC[C@H]1Cc1c(-c2ccc(-c3oc4ccccc4c3C[C@@H]3CCCN3C(=O)[C@@H](NC(=O)[C@@H](N)CC)C3CCCCC3)cc2)oc2ccccc12)C1CCCCC1` [Entry 14] reads 100 to 1000 nM; that for `CN[C@@H](C)C(=O)N[C@H](C(=O)N1CCC[C@H]1Cc1c(-c2ccc(-c3oc4ccccc4c3C[C@@H]3CCCN3C(=O)[C@@H](NC(=O)[C@H](C)NC)[C@@H](C)O)cc2)oc2ccccc12)[C@@H](C)O` [Entry 15], under 100 nM; that for `CN[C@@H](C)C(=O)N[C@H](C(=O)N1CCC[C@H]1Cc1c(-c2ccc(-c3[nH]c4cc(F)ccc4c3C[C@@H]3CCCN3C(=O)[C@@H](NC(=O)[C@H](C)NC)C(C)C)cc2)[nH]c2cc(F)ccc12)C(C)C` [Entry 16], under 100 nM.
Still for that read-out and setting: the result for `CC(C)[C@H](NC(=O)[C@H](C)N)C(=O)N1CCC[C@H]1Cc1c(-c2ccc(-c3[nH]c4cc(F)ccc4c3C[C@@H]3CCCN3C(=O)[C@@H](NC(=O)[C@H](C)N)C(C)C)s2)[nH]c2cc(F)ccc12` [Entry 17] reads under 100 nM; that for `CN[C@@H](C)C(=O)N[C@H](C(=O)N1CCC[C@H]1Cc1c(-c2ccc(-c3[nH]c4cc(F)ccc4c3C[C@@H]3CCCN3C(=O)[C@@H](NC(=O)[C@H](C)NC)C3CCCCC3)s2)[nH]c2cc(F)ccc12)C1CCCCC1` [Entry 18], under 100 nM; that for `C[C@H](N)C(=O)N[C@H](C(=O)N1CCC[C@H]1Cc1c(-c2ccc(-c3[nH]c4cc(F)ccc4c3C[C@@H]3CCCN3C(=O)[C@@H](NC(=O)[C@H](C)N)C3CCCCC3)cc2)[nH]c2cc(F)ccc12)C1CCCCC1` [Entry 19], under 100 nM.
Turning to `CN[C@@H](C)C(=O)N[C@H](C(=O)N1CCC[C@H]1Cc1c(-c2ccc(-c3[nH]c4cc(F)ccc4c3C[C@@H]3CCCN3C(=O)[C@@H](NC(=O)[C@H](C)NC)C3CCCCC3)cc2)[nH]c2cc(F)ccc12)C1CCCCC1` [Entry 20], the Kd is under 100 nM.
For `CN[C@@H](C)C(=O)N[C@H](C(=O)N1C[C@H](O)C[C@H]1Cc1c(-c2ccc(-c3[nH]c4ccccc4c3C[C@@H]3C[C@@H](O)CN3C(=O)[C@@H](NC(=O)[C@H](C)NC)C(C)C)cc2)[nH]c2ccccc12)C(C)C` [Entry 21], the Kd was in the range of 100 to 1000 nM.
On to `CN[C@@H](C)C(=O)N[C@H](C(=O)N1C[C@H](O)C[C@H]1Cc1c(-c2ccc(-c3[nH]c4ccccc4c3C[C@@H]3C[C@@H](O)CN3C(=O)[C@@H](NC(=O)[C@H](C)NC)C(C)(C)C)cc2)[nH]c2ccccc12)C(C)(C)C` [Entry 22], for which the Kd was in the range of 100 to 1000 nM.
On the same count and under the same terms, the result for `CN[C@@H](C)C(=O)N[C@H](C(=O)N1CCC[C@H]1Cc1c(-c2ccc(-c3[nH]c4ccc(F)cc4c3C[C@@H]3CCCN3C(=O)[C@@H](NC(=O)[C@H](C)NC)C(C)C)cc2)[nH]c2ccc(F)cc12)C(C)C` [Entry 23] reads under 100 nM; that for `CN[C@@H](C)C(=O)N[C@H](C(=O)N1C[C@@H](O)C[C@H]1Cc1c(-c2ccc(-c3[nH]c4ccccc4c3C[C@@H]3C[C@H](O)CN3C(=O)[C@@H](NC(=O)[C@H](C)NC)C(C)(C)C)cc2)[nH]c2ccccc12)C(C)(C)C` [Entry 24], under 100 nM.
On to `CN[C@@H](C)C(=O)N[C@H](C(=O)N1CCC[C@H]1Cc1c(-c2ccc(-c3[nH]c4cc(F)ccc4c3C[C@@H]3CCCN3C(=O)[C@@H](NC(=O)[C@H](C)NC)[C@@H](C)OCc3ccccc3)cc2)[nH]c2cc(F)ccc12)[C@@H](C)OCc1ccccc1` [Entry 25], for which the equilibrium dissociation constant (Kd) is under 100 nM.
With `CN[C@@H](C)C(=O)N[C@H](C(=O)N1CCC[C@H]1Cc1c(-c2ccc(-c3[nH]c4cc(F)ccc4c3C[C@@H]3CCCN3C(=O)[C@@H](NC(=O)[C@H](C)NC)[C@@H](C)OCc3ccccc3)cc2)[nH]c2cc(F)ccc12)[C@@H](C)O` [Entry 26], the Kd was under 100 nM.
The same measure, in the same setting: for `CN[C@@H](C)C(=O)N[C@H](C(=O)N1CCC[C@H]1Cc1c(-c2ccc(-c3[nH]c4cc(F)ccc4c3C[C@@H]3CCCN3C(=O)[C@@H](NC(=O)[C@H](C)NC)[C@@H](C)O)cc2)[nH]c2cc(F)ccc12)[C@@H](C)O` [Entry 27] the value was under 100 nM; for `CN[C@@H](C)C(=O)N[C@H](C(=O)N1C[C@@H](O)C[C@H]1Cc1c(-c2ccc(-c3[nH]c4cc(F)ccc4c3C[C@@H]3C[C@H](O)CN3C(=O)[C@@H](NC(=O)[C@H](C)NC)[C@@H](C)O)cc2)[nH]c2cc(F)ccc12)[C@@H](C)O` [Entry 28], under 100 nM.
For `CN[C@@H](C)C(=O)N[C@H](C(=O)N1C[C@@H](O)C[C@H]1Cc1c(-c2ccc(-c3[nH]c4cc(F)ccc4c3C[C@@H]3C[C@H](O)CN3C(=O)[C@@H](NC(=O)[C@H](C)NC)C(C)C)cc2)[nH]c2cc(F)ccc12)C(C)C` [Entry 29], the Kd is under 100 nM.
On to `CN[C@@H](C)C(=O)N[C@H](C(=O)N1C[C@@H](O)C[C@H]1Cc1c(-c2ccc(-c3[nH]c4cc(F)ccc4c3C[C@@H]3C[C@H](O)CN3C(=O)[C@@H](NC(=O)[C@H](C)NC)C(C)(C)C)cc2)[nH]c2cc(F)ccc12)C(C)(C)C` [Entry 30], for which the dissociation constant Kd was under 100 nM.
For the compound `CN[C@@H](C)C(=O)N[C@H](C(=O)N1CCC[C@H]1Cc1c(-c2ccc(-c3[nH]c4cc(F)ccc4c3C[C@@H]3CCCN3C(=O)[C@@H](NC(=O)[C@H](C)NC)[C@@H](C)OCc3ccccc3)cc2)[nH]c2cc(F)ccc12)[C@@H](C)O` [Entry 32], the dissociation constant Kd was under 100 nM.
As for `CN[C@@H](C)C(=O)N[C@H](C(=O)N1CCC[C@H]1Cc1c(-c2ccc(-c3[nH]c4cc(F)ccc4c3C[C@@H]3CCCN3C(=O)[C@@H](NC(=O)[C@H](C)NC)[C@@H](C)OCc3ccccc3)cc2)[nH]c2cc(F)ccc12)[C@@H](C)OCc1ccccc1` [Entry 33], the dissociation constant (Kd) was under 100 nM.
Regarding `CN[C@@H](C)C(=O)N[C@H](C(=O)N1C[C@@H](O)C[C@H]1Cc1c(-c2ccc(-c3[nH]c4ccccc4c3C[C@@H]3C[C@H](O)CN3C(=O)[C@@H](NC(=O)[C@H](C)NC)C(C)(C)C)cc2)[nH]c2ccccc12)C(C)(C)C` [Entry 34], the Kd is under 100 nM.
Consider `CN[C@@H](C)C(=O)N[C@H](C(=O)N1CCC[C@H]1Cc1c(-c2ccc(-c3[nH]c4ccc(F)cc4c3C[C@@H]3CCCN3C(=O)[C@@H](NC(=O)[C@H](C)NC)C(C)C)cc2)[nH]c2ccc(F)cc12)C(C)C` [Entry 35], for which the dissociation constant Kd is under 100 nM.
Same read-out and setting: the result for `CN[C@@H](C)C(=O)N[C@H](C(=O)N1C[C@H](O)C[C@H]1Cc1c(-c2ccc(-c3[nH]c4ccccc4c3C[C@@H]3C[C@@H](O)CN3C(=O)[C@@H](NC(=O)[C@H](C)NC)C(C)(C)C)cc2)[nH]c2ccccc12)C(C)(C)C` [Entry 36] reads 100 to 1000 nM.

Still in this experiment, the particulars now being: XIAP BIR-3, FIG. 1.
As to `CC(C)[C@H](NC(=O)[C@H](C)N)C(=O)N1CCC[C@H]1Cc1c(-c2ccc(-c3[nH]c4cc(F)ccc4c3C[C@@H]3CCCN3C(=O)[C@@H](NC(=O)[C@H](C)N)C(C)C)s2)[nH]c2cc(F)ccc12` [Entry 17], the “increase in binding affinity relative to the Smac tetrapeptide (AVPI)” value is 30,000 fold.
